Test results taken from ChEMBL document CHEMBL1201862, “PubChem BioAssay data set” (2004).
Activity calls are given as the source filed them.

Assays:
[1] = target: Genome polyprotein (dengue virus type 2, UniProt P29990); experiment: flavivirus cap methylation enzyme inhibition – biochemical, confirmation dose response, primary screen (AID 588689); type: functional
[2] = target: Major prion protein (Homo sapiens, UniProt P04156); type: functional, cell-based
[3] = target: T1, Protein skinhead-1 (Caenorhabditis elegans, UniProt P34707); type: functional
T1 sequence (P34707 whole entry): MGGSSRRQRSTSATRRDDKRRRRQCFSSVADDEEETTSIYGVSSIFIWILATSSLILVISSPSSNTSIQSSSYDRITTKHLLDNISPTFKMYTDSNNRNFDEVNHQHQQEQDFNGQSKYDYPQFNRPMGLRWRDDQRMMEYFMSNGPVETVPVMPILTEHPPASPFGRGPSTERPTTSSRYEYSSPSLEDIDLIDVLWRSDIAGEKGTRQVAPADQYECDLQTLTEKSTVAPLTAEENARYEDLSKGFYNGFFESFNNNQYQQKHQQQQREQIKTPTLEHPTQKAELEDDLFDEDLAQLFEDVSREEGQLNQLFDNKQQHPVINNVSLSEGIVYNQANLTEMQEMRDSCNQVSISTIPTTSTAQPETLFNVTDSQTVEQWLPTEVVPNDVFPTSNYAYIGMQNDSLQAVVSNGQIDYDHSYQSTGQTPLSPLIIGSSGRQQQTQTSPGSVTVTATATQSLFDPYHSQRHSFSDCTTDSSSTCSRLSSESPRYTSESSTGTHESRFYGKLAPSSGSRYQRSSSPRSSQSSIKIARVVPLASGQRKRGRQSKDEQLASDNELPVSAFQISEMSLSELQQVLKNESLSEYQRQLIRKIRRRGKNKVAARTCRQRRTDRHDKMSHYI

[4] = cells
[5] = target: T2, Adenosylmethionine-8-amino-7-oxononanoate aminotransferase (Mycobacterium tuberculosis, UniProt P9WQ81); experiment: Mycobacterium tuberculosis BioA enzyme inhibitor Measured in Biochemical System Using Plate Reader - 2163-02_Inhibitor_Dose_CherryPick_Activity.; type: functional, Mycobacterium tuberculosis UT205
T2 sequence (P9WQ81 whole entry): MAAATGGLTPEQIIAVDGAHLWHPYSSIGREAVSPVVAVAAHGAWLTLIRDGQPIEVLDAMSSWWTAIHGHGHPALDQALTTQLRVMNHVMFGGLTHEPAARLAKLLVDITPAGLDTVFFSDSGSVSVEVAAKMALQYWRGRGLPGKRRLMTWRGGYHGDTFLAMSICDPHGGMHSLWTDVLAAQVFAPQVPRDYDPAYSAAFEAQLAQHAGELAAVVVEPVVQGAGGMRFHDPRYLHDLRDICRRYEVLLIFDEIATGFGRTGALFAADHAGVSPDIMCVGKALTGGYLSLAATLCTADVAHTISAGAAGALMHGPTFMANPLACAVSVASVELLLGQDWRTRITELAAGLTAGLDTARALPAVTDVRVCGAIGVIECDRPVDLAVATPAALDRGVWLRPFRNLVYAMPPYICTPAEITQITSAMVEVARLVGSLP

[6] = target: T3, Long-chain-fatty-acid--AMP ligase FadD28 (Mycobacterium tuberculosis, UniProt P9WQ59); experiment: Fluorescence polarization aasay to screen for inhibitors that compete for the binding of FadD28 to a bisubstrate Measured in Biochemical System Using Plate Reader - 2147-01_Inhibitor_Dose_CherryPick_Activity.; type: functional, Mycobacterium tuberculosis H37Rv
T3 sequence (P9WQ59 whole entry): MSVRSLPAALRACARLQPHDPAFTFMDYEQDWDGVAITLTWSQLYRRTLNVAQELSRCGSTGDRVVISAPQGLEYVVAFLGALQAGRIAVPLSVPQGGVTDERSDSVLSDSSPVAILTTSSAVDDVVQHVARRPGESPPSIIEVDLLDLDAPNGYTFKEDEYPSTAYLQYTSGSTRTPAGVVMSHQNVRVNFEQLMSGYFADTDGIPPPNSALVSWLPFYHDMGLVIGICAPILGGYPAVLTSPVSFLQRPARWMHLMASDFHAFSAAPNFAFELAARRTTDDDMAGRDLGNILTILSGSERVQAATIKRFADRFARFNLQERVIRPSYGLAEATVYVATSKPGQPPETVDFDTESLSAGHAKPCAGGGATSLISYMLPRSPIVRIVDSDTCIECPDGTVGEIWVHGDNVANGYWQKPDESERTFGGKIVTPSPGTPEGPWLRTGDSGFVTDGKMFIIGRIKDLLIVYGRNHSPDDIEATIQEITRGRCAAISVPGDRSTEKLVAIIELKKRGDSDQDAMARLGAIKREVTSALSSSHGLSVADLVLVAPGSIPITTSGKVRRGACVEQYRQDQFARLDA

[7] = tested on: BJ; experiment: BJ-TERT fibroblast viability loss – cell-based, RAS-independent, luminescence, dose response (AID 1933); type: functional; conditions: Homo sapiens
[8] = cells; type: functional, cell-based
[9] = tested on: BJ; experiment: cells; type: functional, cell-based; conditions: Homo sapiens
[10] = cells; type: functional, cell-based; remark: listed apart in the source
[11] = tested on: BJ; experiment: BJ-TERT-LT-ST fibroblast viability loss – cell-based, RAS-independent, luminescence, dose response (AID 1935); type: functional; conditions: Homo sapiens;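 further: BJ fibroblasts immortalized with TERT plus LT and ST oncogenes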
[12] = DRD fibroblast viability loss – cell-based, non-viral oncogenic, luminescence, dose response (AID 1934); type: functional; conditions: Homo sapiens
[13] = THP-1 cell cytotoxicity, dose response, cytotoxicity control for non-replicating M. tuberculosis project (AID 489025); type: functional
[14] = HepG2 cell cytotoxicity, dose response, cytotoxicity control for non-replicating M. tuberculosis project (AID 489018); type: functional; conditions: Mycobacterium tuberculosis
[15] = Vero E6 cell cytotoxicity, dose response, cytotoxicity control for non-replicating M. tuberculosis project, secondary assay (AID 492998); type: functional, VeroE6; conditions: Vero C1008
[16] = cells; type: functional
[17] = tested on: INS1; experiment: INS-1E survival protection against cytokine death – cell-based, luminescence, retest, dose response (AID 449756); type: functional; conditions: Rattus norvegicus;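 further: cell death triggered by IL-1 beta plus TNF-alpha plus IFN-gamma mixture; protective hits raise ATP signal compared with cytokine alone wells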
[18] = Trypanosoma cruzi growth suppression in host cells – NIH3T3 host cells, beta-gal luminescence, confirmation (AID 2044); type: functional, cell-based;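 further: intracellular parasites grown in NIH/3T3 mouse fibroblasts as host cells; luminescent beta-galactosidase reporter signal from transgenic T. cruzi replicating inside host cells; inhibitors lower the luminescence signal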
[19] = NIH3T3 cell viability loss – ATP luminescence, mouse fibroblasts, counter-screen, dose response (AID 2010); type: functional, cell-based;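 further: cells exposed to compound for about 90 hours before reading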
[20] = target: SUMO-activating enzyme (Homo sapiens, UniProt Q9UBT2); experiment: blockers of UBC9-mediated SUMO conjugation – biochemical, AlphaScreen, SUMOylation inhibitor project, confirmation (AID 2018); type: functional
[21] = target: Prothrombin (Homo sapiens, UniProt P00734); experiment: Thrombin 1536 HTS Dose Response Confirmation. [Related pubchem assays: 1046 (Thrombin 1536 HTS; hits were confirmed in this assay)]; type: functional
[22] = target: T4, Calpain-2 catalytic subunit (Sus scrofa, UniProt P43367); experiment: m-calpain protease blockers, concentration series – biochemical, fluorogenic peptide substrate, dose response (AID 1420); type: functional
T4 sequence (P43367 whole entry): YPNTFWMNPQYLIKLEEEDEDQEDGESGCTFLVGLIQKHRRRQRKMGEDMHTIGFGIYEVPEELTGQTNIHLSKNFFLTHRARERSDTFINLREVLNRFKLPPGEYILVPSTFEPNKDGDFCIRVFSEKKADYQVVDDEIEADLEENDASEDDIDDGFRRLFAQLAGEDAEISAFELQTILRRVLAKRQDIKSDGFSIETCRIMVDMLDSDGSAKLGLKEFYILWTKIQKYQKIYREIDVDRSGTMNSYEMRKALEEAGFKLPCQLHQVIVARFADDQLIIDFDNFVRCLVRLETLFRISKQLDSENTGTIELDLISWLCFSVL

[23] = target: Luciferin 4-monooxygenase (Photinus pyralis, UniProt P08659); experiment: inhibition of purified Photinus pyralis luciferase – biochemical, luminescence, dose response (AID 1891)
[24] = Luminescence Cell-Based Dose Confirmation HTS to Identify Inhibitors of Platelet Dense Granule Release. [Related pubchem assays: 1663 (Primary HTS), 1678 (Summary of Project)]; type: functional

## C=CCOc1ccc(C(c2c(O)nc(SC)nc2O)c2c(O)nc(SC)nc2O)cc1
[1]
  IC50: 33.3 µM (active)

## Cc1ccc(-n2nc3c(=S)[nH]nc(C)c3c2C)cc1
[2]
  IC50: 0.143 µM (active)

## Clc1ccc(Cn2nnc(-c3ccccc3)n2)cc1
[3]
  IC50: 12.6 µM (active)

## COC(=O)c1cc(NC(=O)CN(c2ccc3c(c2)OCO3)S(C)(=O)=O)ccc1Cl
[3]
  IC50: > 100 µM (inactive)

## Cc1cc(NC(=O)COc2ccc3ccccc3c2Br)no1
[2]
  IC50: 1.39 µM (active)
[4]
  IC50: 133 µM (inactive)

## Cc1nn(-c2ncc(C(F)(F)F)cc2Cl)c(=O)n1-c1ccccc1
[3]
  IC50: > 100 µM (inactive)

## CCc1c(C(=O)NCCc2ccc(OC)c(OC)c2)[nH]c(C)c1C(C)=O
[5]
  AC50: 3.74 µM (active)

## Cc1ccc(/C=C(\CCC(=O)O)c2nc3ccccc3s2)cc1[N+](=O)[O-]
[5]
  AC50: 0.153 µM (active)

## Cn1c(-c2ccc(Br)o2)nc2cc(Br)ccc21
[3]
  IC50: > 100 µM (inactive)

## Cc1ccc(OCC(=O)N/N=C\c2c(C)n(C)c3ccccc23)c([N+](=O)[O-])c1
[6]
  AC50: 68 µM (active)

## O=[N+]([O-])c1cccnc1N/N=C/c1ccccc1O
[7]
  EC50: 9.77 µM (active)
[8]
  EC50: > 350 µM (not active)
[9]
  EC50: 10.9 µM (active)
[10]
  EC50: 6.41 µM (active)
[11]
  EC50: 21.6 µM (active)
[12]
  EC50: 8.92 µM (active)
[13]
  CC50: 0.766 µM (active)
[14]
  CC50: 14.4 µM (active)
[15]
  CC50: 3.08 µM (active)
[16]
  IC50: 3.92 µM (active)
[17]
  AC50: 0.691 µM (active)

## O=C(NC(=S)NCCO)c1sc2ccccc2c1Cl
[2]
  IC50: 3.4 µM (active)
[4]
  IC50: > 138 µM (inactive)

## COc1ccc(C(=O)Nc2ccc(Cn3ccnc3)cc2)cc1OC
[5]
  AC50: 7.74 µM (active)

## N#C/C(=C\c1ccccc1)C(=O)NNS(=O)(=O)c1cccc([N+](=O)[O-])c1
[1]
  IC50: 51.8 µM (active)

## Cc1ccc(NC(C)C(=O)N/N=C/c2ccc([N+](=O)[O-])s2)cc1 (stereo not given)
[18]
  EC50: 0.494 µM (active)
[19]
  EC50: > 60 µM (not active)
[13]
  CC50: 25.9 µM (active)
[15]
  CC50: 15.8 µM (active)
[16]
  IC50: 7.04 µM (active)

## O=C1/C(=C/c2coc3ccc(O)cc3c2=O)SC(=S)N1c1ccccc1
[20]
  IC50: 39.4 µM (active)

## O=C(COC(=O)c1cccc(S(=O)(=O)N2CCCCCC2)c1)Nc1ccccc1
[6]
  AC50: > 100 µM (inactive)

## CCOC(=O)N1CCN(C(=O)CSCC(=O)Nc2nc(-c3ccc(Cl)s3)cs2)CC1
[21]
  IC50: 1.95 µM (active)

## Cc1nn(C)cc1CN(C)C(=O)c1cc(-c2ccccc2)nc2ccc(Br)cc12
[2]
  IC50: 6.12 µM (active)
[4]
  IC50: 75.1 µM (inactive)

## Cc1cc(NC(=O)CSc2nc3cc(C(=O)NCCCOC(C)C)ccc3c(=O)n2Cc2ccco2)no1
[20]
  IC50: 38.3 µM (active)
[22]
  IC50: 16.1 µM (not active)

## O=C(Nc1ncc2c(n1)CC(c1ccco1)CC2=O)c1ccco1 (stereo not given)
[23]
  EC50: > 112 µM (not active)
[24]
  EC50: > 112 µM (not active)
[5]
  AC50: 6.29 µM (active)

## Cc1cc(C)n(-c2ccc(C(=O)Nc3ccc4c(c3)OCO4)cc2)n1
[5]
  AC50: 4.31 µM (active)

## COc1cc(C(C2C(=O)CC(C)(C)CC2=O)C2C(=O)CC(C)(C)CC2=O)ccc1O
[1]
  IC50: 62.3 µM (active)

## COC(=O)c1c(NC(=O)CN2CCN(Cc3ccc4c(c3)OCO4)CC2)sc(C)c1C
[18]
  EC50: 1.88 µM (active)
[19]
  EC50: > 60 µM (not active)
[3]
  IC50: > 100 µM (inactive)

## Cc1ccc(-n2nc3c(S)nnc(C)c3c2C)cc1
[4]
  IC50: > 138 µM (inactive)

## COc1ccccc1-n1c(C)c(C(=O)O)c2cc(OC)c3ccccc3c21
[6]
  AC50: 60.9 µM (active)

## O=c1[nH]c(=O)n(Cc2ccccc2)c2c1C(C(F)(F)F)(C(F)(F)F)N=C(c1ccco1)N2
[21]
  IC50: 31.5 µM (active)

## COC(=O)c1n[nH]c(NC(=O)C(C)(C)C)n1
[21]
  IC50: 1.43 µM (active)
